Reference: patent US5593984A, “Cephalosporin derivatives” (Yuhan Corporation, priority 1992, dated 1997)
≈ marks a conversion by molar mass, not a printed value.

What was measured:
Assay type in all cases: cell-based
Ps. aeruginosa DY-2 = experiment: MIC by agar dilution, Ps. aeruginosa DY-2; conditions: Pseudomonas aeruginosa, DY2, 17 h; Ps. aeruginosa DY-2; agar dilution, Mueller-Hinton agar; read-out: Minimal Inhibitory Concentration (MIC)
Method: (§1) These MIC values were determined by agar dilution method: that is, two-fold dilutions of each of the test compounds were made and dispersed in a Mueller-Hinton agar medium; standard test strain which had the 10^6 CFU (Colony Forming Unit) per ml was inoculated on the medium with microplanter (Toyo, Japan), and incubated at 35°-37° C. for 17±1 hours. The structures of Ceftazidime (CAZ) and Cefotaxime (CTX) which are used as control compounds are as follows: [drawing 12]

E. coli NIHJ JC-2 = experiment: MIC by agar dilution, E. coli NIHJ JC-2; conditions: Escherichia coli, NIHJJC2, 17 h; E. coli NIHJ JC-2; agar dilution, Mueller-Hinton agar; read-out: Minimal Inhibitory Concentration (MIC)
Method: as §1

K. pneumoniae NCTC 9632 = experiment: MIC by agar dilution, K. pneumoniae NCTC 9632; conditions: Klebsiella pneumoniae, NCTC9632, 17 h; K. pneumoniae NCTC 9632; agar dilution, Mueller-Hinton agar; read-out: Minimal Inhibitory Concentration (MIC)
Method: as §1

Ent. aerogenes IFO 12979 = experiment: MIC by agar dilution, Ent. aerogenes IFO 12979; conditions: Klebsiella aerogenes, IFO12979, 17 h, Mueller-Hinton agar, read-out: Minimal Inhibitory Concentration (MIC)
Method: as §1

Staph. aureus C-5216 = experiment: MIC by agar dilution, Staph. aureus C-5216; conditions: Staphylococcus aureus, C5216, 17 h, Mueller-Hinton agar, read-out: Minimal Inhibitory Concentration (MIC)
Method: as §1

P. vulgaris NCTC 8313 = experiment: MIC by agar dilution, P. vulgaris NCTC 8313; conditions: Proteus vulgaris, NCTC8313, 17 h; P. vulgaris NCTC 8313; agar dilution, Mueller-Hinton agar; read-out: Minimal Inhibitory Concentration (MIC)
Method: as §1

Staph. aureus ATCC 6538P = experiment: MIC by agar dilution, Staph. aureus ATCC 6538P; conditions: Staphylococcus aureus, ATCC6538P, 17 h; Staph. aureus ATCC 6538P; agar dilution, Mueller-Hinton agar; read-out: Minimal Inhibitory Concentration (MIC)
Method: as §1

E. coli No. 29 = experiment: MIC by agar dilution, E. coli No. 29; conditions: Escherichia coli, 17 h; E. coli No. 29; agar dilution, Mueller-Hinton agar; read-out: Minimal Inhibitory Concentration (MIC)
Method: as §1

[1] = tested on: Ps. aeruginosa ATCC 10145; experiment: MIC by agar dilution, Ps. aeruginosa ATCC 10145; conditions: Pseudomonas aeruginosa, ATCC10145, 17 h, Mueller-Hinton agar, read-out: Minimal Inhibitory Concentration (MIC)
Method: as §1

B. subtilis ATCC 6633 = experiment: MIC by agar dilution, B. subtilis ATCC 6633; conditions: Bacillus subtilis, ATCC6633, 17 h; B. subtilis ATCC 6633; agar dilution, Mueller-Hinton agar; read-out: Minimal Inhibitory Concentration (MIC)
Method: as §1

[2] = tested on: Ps. aeruginosa NCTC 10490; experiment: MIC by agar dilution, Ps. aeruginosa NCTC 10490; conditions: Pseudomonas aeruginosa, NCTC10490, 17 h, Mueller-Hinton agar, read-out: Minimal Inhibitory Concentration (MIC)
Method: as §1

Staph. aureus C-57 = experiment: MIC by agar dilution, Staph. aureus C-57; conditions: Staphylococcus aureus, C57, 17 h, Mueller-Hinton agar, read-out: Minimal Inhibitory Concentration (MIC)
Method: as §1

[3] = tested on: S. epidermidis ATCC 12228; experiment: MIC by agar dilution, S. epidermidis ATCC 12228; conditions: Staphylococcus epidermidis, ATCC12228, 17 h; S. epidermidis ATCC 12228; agar dilution, Mueller-Hinton agar; read-out: Minimal Inhibitory Concentration (MIC)
Method: as §1

Prov. stuartii IFO 12930 = experiment: MIC by agar dilution, Prov. stuartii IFO 12930; conditions: Providencia stuartii, IFO12930, 17 h, Mueller-Hinton agar, read-out: Minimal Inhibitory Concentration (MIC)
Method: as §1

Staph. aureus Smith = experiment: MIC by agar dilution, Staph. aureus Smith; conditions: Staphylococcus aureus, 17 h, Mueller-Hinton agar, read-out: Minimal Inhibitory Concentration (MIC)
Method: as §1

Staph. aureus C-5113 = experiment: MIC by agar dilution, Staph. aureus C-5113; conditions: Staphylococcus aureus, C5113, 17 h, Mueller-Hinton agar, read-out: Minimal Inhibitory Concentration (MIC)
Method: as §1

Ent. cloacae IFO 13535 = experiment: MIC by agar dilution, Ent. cloacae IFO 13535; conditions: Enterobacter cloacae, IFO13535, 17 h; Ent. cloacae IFO 13535; agar dilution, Mueller-Hinton agar; read-out: Minimal Inhibitory Concentration (MIC)
Method: as §1

E. coli DY-1 = experiment: MIC by agar dilution, E. coli DY-1; conditions: Escherichia coli, DY1, 17 h; E. coli DY-1; agar dilution, Mueller-Hinton agar; read-out: Minimal Inhibitory Concentration (MIC)
Method: as §1

[4] = tested on: Ser. marcescens IFO 12648; experiment: MIC by agar dilution, Ser. marcescens IFO 12648; conditions: Serratia marcescens, IFO12648, 17 h; Ser. marcescens IFO 12648; agar dilution, Mueller-Hinton agar; read-out: Minimal Inhibitory Concentration (MIC)
Method: as §1

M. morganii DY-1 = experiment: MIC by agar dilution, M. morganii DY-1; conditions: Morganella morganii, DY1, 17 h; M. morganii DY-1; agar dilution, Mueller-Hinton agar; read-out: Minimal Inhibitory Concentration (MIC)
Method: as §1

| Compound | MIC (Ps. aeruginosa DY-2) | MIC (E. coli NIHJ JC-2) | MIC (K. pneumoniae NCTC 9632) | MIC (Ent. aerogenes IFO 12979) | MIC (Staph. aureus C-5216) | MIC (P. vulgaris NCTC 8313) | MIC (Staph. aureus ATCC 6538P) | MIC (E. coli No. 29) | MIC [1] | MIC (B. subtilis ATCC 6633) | MIC [2] | MIC (Staph. aureus C-57) | MIC [3] | MIC (Prov. stuartii IFO 12930) | MIC (Staph. aureus Smith) | MIC (Staph. aureus C-5113) | MIC (Ent. cloacae IFO 13535) | MIC (E. coli DY-1) | MIC [4] | MIC (M. morganii DY-1) |
| --- | --- | --- | --- | --- | --- | --- | --- | --- | --- | --- | --- | --- | --- | --- | --- | --- | --- | --- | --- | --- |
| CO/N=C(\C(=O)N[C@@H]1C(=O)N2C(C(=O)[O-])=C(C[n+]3ccn4c(CO)ccc4c3)CS[C@H]12)c1nc(N)sc1Cl [Ex. 49, 7-β-[(Z)-2-(2-amino-5-chlorothiazol-4-yl)-2-methoxyiminoacetamido]-3-(6-hydroxymethylpyrrolo[1,2-a]-pyrazinium-2-yl)methyl-3-cephem-4-carboxylate] | 3.13 µg/mL (≈ 5.41 µM) | 0.1 µg/mL (≈ 0.173 µM) | 0.1 µg/mL (≈ 0.173 µM) | 0.05 µg/mL (≈ 0.0865 µM) | 0.78 µg/mL (≈ 1.35 µM) | 0.025 µg/mL (≈ 0.0433 µM) | 0.2 µg/mL (≈ 0.346 µM) | 0.025 µg/mL (≈ 0.0433 µM) | 1.56 µg/mL (≈ 2.7 µM) | 0.1 µg/mL (≈ 0.173 µM) | 0.2 µg/mL (≈ 0.346 µM) | 1.56 µg/mL (≈ 2.7 µM) | 0.012 µg/mL (≈ 0.0208 µM) | ≤ 0.006 µg/mL | 0.39 µg/mL (≈ 0.675 µM) | 0.39 µg/mL (≈ 0.675 µM) | 0.39 µg/mL (≈ 0.675 µM) | ≤ 0.006 µg/mL | 0.1 µg/mL (≈ 0.173 µM) | 0.1 µg/mL (≈ 0.173 µM) |
| CC(C)(ON=C(C(=O)NC1C(=O)N2C(C(=O)[O-])=C(C[n+]3ccn4cccc4c3)CSC12)c1csc(N)n1)C(=O)O (stereo not drawn) [Ex. 2, 7-β-[(Z)-2-(2-aminothiazol-4-yl)-2-(2-carboxyprop-2-oxyimino)acetamido]-3-(pyrrolo[1,2-a]pyrazinium-2-yl)methyl-3-cephem-4-carboxylate] | 6.25 µg/mL (≈ 10.7 µM) | 0.2 µg/mL (≈ 0.342 µM) | 0.2 µg/mL (≈ 0.342 µM) | 0.025 µg/mL (≈ 0.0427 µM) | 12.5 µg/mL (≈ 21.3 µM) | ≤ 0.006 µg/mL | 3.13 µg/mL (≈ 5.34 µM) | 0.1 µg/mL (≈ 0.171 µM) | 0.78 µg/mL (≈ 1.33 µM) | 3.13 µg/mL (≈ 5.34 µM) | 0.39 µg/mL (≈ 0.666 µM) | 100 µg/mL (≈ 171 µM) | 1.56 µg/mL (≈ 2.66 µM) | 0.025 µg/mL (≈ 0.0427 µM) | 12.5 µg/mL (≈ 21.3 µM) | 25 µg/mL (≈ 42.7 µM) | 3.13 µg/mL (≈ 5.34 µM) | 0.05 µg/mL (≈ 0.0854 µM) | 0.1 µg/mL (≈ 0.171 µM) | 0.05 µg/mL (≈ 0.0854 µM) |
| CON=C(C(=O)NC1C(=O)N2C(C(=O)[O-])=C(C[n+]3ccn4c(C=O)ccc4c3)CSC12)c1csc(N)n1 (stereo not drawn) [Ex. 25, 7-β-[(Z)-2-(2-aminothiazol-4-yl)-2-methoxyiminoacetamido]-3-(6-formylpyrrolo[1,2-a]pyrazinium-2-yl)methyl-3-cephem-4-carboxylate] | 12.5 µg/mL (≈ 23.1 µM) | 0.025 µg/mL (≈ 0.0462 µM) | 0.05 µg/mL (≈ 0.0923 µM) | 0.025 µg/mL (≈ 0.0462 µM) | 1.56 µg/mL (≈ 2.88 µM) | 0.05 µg/mL (≈ 0.0923 µM) | 0.78 µg/mL (≈ 1.44 µM) | 0.05 µg/mL (≈ 0.0923 µM) | 3.13 µg/mL (≈ 5.78 µM) | 0.39 µg/mL (≈ 0.72 µM) | 0.39 µg/mL (≈ 0.72 µM) | 25 µg/mL (≈ 46.2 µM) | 0.1 µg/mL (≈ 0.185 µM) | 0.012 µg/mL (≈ 0.0222 µM) | 3.13 µg/mL (≈ 5.78 µM) | 3.13 µg/mL (≈ 5.78 µM) | 0.78 µg/mL (≈ 1.44 µM) | 0.05 µg/mL (≈ 0.0923 µM) | 0.05 µg/mL (≈ 0.0923 µM) | 0.05 µg/mL (≈ 0.0923 µM) |
| Nc1nc(C(=NOCCF)C(=O)NC2C(=O)N3C(C(=O)[O-])=C(C[n+]4ccn5cccc5c4)CSC23)cs1 (stereo not drawn) [Ex. 5, 7-β-[(Z)-2-(2-aminothiazol-4-yl)-2-(2-fluoroethoxyimino)acetamido]-3-(pyrrolo[1,2-a]pyrazinium-2-yl)methyl-3-cephem-4-carboxylate] | 1.56 µg/mL (≈ 2.86 µM) | 0.012 µg/mL (≈ 0.022 µM) | ≤ 0.006 µg/mL | ≤ 0.006 µg/mL | 0.2 µg/mL (≈ 0.367 µM) | ≤ 0.006 µg/mL | 0.2 µg/mL (≈ 0.367 µM) | ≤ 0.006 µg/mL | 0.39 µg/mL (≈ 0.715 µM) | 0.1 µg/mL (≈ 0.183 µM) | 0.2 µg/mL (≈ 0.367 µM) | 12.5 µg/mL (≈ 22.9 µM) | 0.025 µg/mL (≈ 0.0458 µM) | ≤ 0.006 µg/mL | 0.2 µg/mL (≈ 0.367 µM) | 0.2 µg/mL (≈ 0.367 µM) | 0.025 µg/mL (≈ 0.0458 µM) | ≤ 0.006 µg/mL | ≤ 0.006 µg/mL | ≤ 0.006 µg/mL |
| CO/N=C(\C(=O)N[C@@H]1C(=O)N2C(C(=O)[O-])=C(C[n+]3ccn4c(CO)ccc4c3C)CS[C@H]12)c1nc(N)sc1Cl [Ex. 58, 7-β-[(Z)-2-(2-amino-5-chlorothiazol-4-yl)-2-methoxyiminoacetamido]-3-(6-hydroxymethyl-1-methylpyrrolo[1,2-a]-pyrazinium-2-yl)methyl-3-cephem-4-carboxylate] | 3.13 µg/mL (≈ 5.29 µM) | 0.2 µg/mL (≈ 0.338 µM) | 0.1 µg/mL (≈ 0.169 µM) | 0.1 µg/mL (≈ 0.169 µM) | 0.78 µg/mL (≈ 1.32 µM) | 0.012 µg/mL (≈ 0.0203 µM) | 0.05 µg/mL (≈ 0.0845 µM) | 0.05 µg/mL (≈ 0.0845 µM) | 1.56 µg/mL (≈ 2.63 µM) | 0.2 µg/mL (≈ 0.338 µM) | 0.78 µg/mL (≈ 1.32 µM) | 3.13 µg/mL (≈ 5.29 µM) | 0.1 µg/mL (≈ 0.169 µM) | 0.012 µg/mL (≈ 0.0203 µM) | 0.39 µg/mL (≈ 0.659 µM) | 0.78 µg/mL (≈ 1.32 µM) | 0.78 µg/mL (≈ 1.32 µM) | 0.05 µg/mL (≈ 0.0845 µM) | 0.2 µg/mL (≈ 0.338 µM) | 0.39 µg/mL (≈ 0.659 µM) |
| CCON=C(C(=O)NC1C(=O)N2C(C(=O)[O-])=C(C[n+]3ccn4ccc(CO)c4c3)CSC12)c1csc(N)n1 (stereo not drawn) [Ex. 31, 7-β-[(Z)-2-(2-aminothiazol-4-yl)2-ethoxyiminoacetamido]-3-(8-hydroxymethylpyrrolo[1,2-a]pyrazinium-2-yl)methyl-3-cephem-4-carboxylate] | 3.13 µg/mL (≈ 5.61 µM) | 0.05 µg/mL (≈ 0.0897 µM) | 0.05 µg/mL (≈ 0.0897 µM) | 0.025 µg/mL (≈ 0.0448 µM) | 3.13 µg/mL (≈ 5.61 µM) | 0.012 µg/mL (≈ 0.0215 µM) | 0.2 µg/mL (≈ 0.359 µM) | 0.012 µg/mL (≈ 0.0215 µM) | 1.56 µg/mL (≈ 2.8 µM) | 0.1 µg/mL (≈ 0.179 µM) | 0.78 µg/mL (≈ 1.4 µM) | 25 µg/mL (≈ 44.8 µM) | 0.2 µg/mL (≈ 0.359 µM) | 0.025 µg/mL (≈ 0.0448 µM) | 1.56 µg/mL (≈ 2.8 µM) | 6.25 µg/mL (≈ 11.2 µM) | 0.2 µg/mL (≈ 0.359 µM) | ≤ 0.006 µg/mL | 0.05 µg/mL (≈ 0.0897 µM) | 0.025 µg/mL (≈ 0.0448 µM) |
